# Activity calls are given as the source filed them. The rule behind the calls is not given here.
# Assays:
# Shigella boydii = assay: Antibacterial activity against Shigella boydii assessed as inhibition of bacterial growth incubated for 24 hrs by agar well diffusion method; format: functional; as to DIZ: test concentration or dose not given here
# [1] = system: Salmonella enterica subsp. enterica serovar Abony; assay: Antibacterial activity against Salmonella abony assessed as inhibition of bacterial growth incubated for 24 hrs by agar well diffusion method; format: functional; also: test concentration or dose not given here
# Pseudomonas aeruginosa = assay: Antibacterial activity against Pseudomonas aeruginosa assessed as inhibition of bacterial growth incubated for 24 hrs by agar well diffusion method; format: functional; also: test concentration or dose not given here
# Aspergillus niger = assay: Antifungal activity against Aspergillus niger assessed as inhibition of fungal growth incubated for 24 hrs by agar well diffusion method; format: functional; also: test concentration or dose not given here
# [2] = molecular target: T1, Enoyl-[acyl-carrier-protein] reductase [NADH] (Mycobacterium tuberculosis) (UniProt P9WGR1); assay: Inhibition of InhA in Mycobacterium tuberculosis H37Rv assessed antitubercular activity by measuring inhibition of bacterial growth incubated for 7 days by MABA assay; conditions: time 7.0 day
# T1 sequence (whole entry): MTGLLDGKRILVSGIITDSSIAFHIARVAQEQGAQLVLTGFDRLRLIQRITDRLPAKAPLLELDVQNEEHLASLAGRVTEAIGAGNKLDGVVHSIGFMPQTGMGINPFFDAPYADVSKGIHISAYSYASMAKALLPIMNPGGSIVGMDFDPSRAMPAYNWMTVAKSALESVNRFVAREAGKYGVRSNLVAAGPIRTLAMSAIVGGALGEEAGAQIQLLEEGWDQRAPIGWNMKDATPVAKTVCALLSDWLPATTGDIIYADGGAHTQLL
# Bacillus cereus = assay: Antibacterial activity against Bacillus cereus assessed as inhibition of bacterial growth incubated for 24 hrs by agar well diffusion method; format: functional; also: test concentration or dose not given here
# Candida albicans = assay: Antifungal activity against Candida albicans assessed as inhibition of fungal growth incubated for 24 hrs by agar well diffusion method; format: functional; as to DIZ: test concentration or dose not given here
# Saccharomyces cerevisiae = assay: Antifungal activity against Saccharomyces cerevisiae assessed as inhibition of fungal growth incubated for 24 hrs by agar well diffusion method; format: functional; also: test concentration or dose not given here
# Staphylococcus aureus = assay: Antibacterial activity against Staphylococcus aureus assessed as inhibition of bacterial growth incubated for 24 hrs by agar well diffusion method; format: functional; also: test concentration or dose not given here
# Escherichia coli = assay: Antibacterial activity against Escherichia coli assessed as inhibition of bacterial growth incubated for 24 hrs by agar well diffusion method; format: functional; also: test concentration or dose not given here
# Klebsiella aerogenes = assay: Antibacterial activity against Enterobacter aerogenes assessed as inhibition of bacterial growth incubated for 24 hrs by agar well diffusion method; format: functional; also: test concentration or dose not given here
# Salmonella typhi = assay: Antibacterial activity against Salmonella typhi assessed as inhibition of bacterial growth incubated for 24 hrs by agar well diffusion method; format: functional; conditions: Salmonella enterica subsp. enterica serovar Typhi
# Bacillus subtilis = assay: Antibacterial activity against Bacillus subtilis assessed as inhibition of bacterial growth incubated for 24 hrs by agar well diffusion method; format: functional; also: test concentration or dose not given here
Compound,diameter of the inhibition zone (DIZ) (Shigella boydii),diameter of the inhibition zone (DIZ) [1],diameter of the inhibition zone (DIZ) (Pseudomonas aeruginosa),diameter of the inhibition zone (DIZ) (Aspergillus niger),MIC [2],diameter of the inhibition zone (DIZ) (Bacillus cereus),diameter of the inhibition zone (DIZ) (Candida albicans),diameter of the inhibition zone (DIZ) (Saccharomyces cerevisiae),diameter of the inhibition zone (DIZ) (Staphylococcus aureus),diameter of the inhibition zone (DIZ) (Escherichia coli),diameter of the inhibition zone (DIZ) (Klebsiella aerogenes),diameter of the inhibition zone (DIZ) (Salmonella typhi),diameter of the inhibition zone (DIZ) (Bacillus subtilis)
COc1ccc(NC(=O)Cn2cc(COc3ccc4c(c3)CCC4)nn2)cc1,inactive,inactive,inactive,inactive,> 25 µM,inactive,inactive,inactive,inactive,inactive,inactive,inactive,inactive
Cc1cc([N+](=O)[O-])ccc1NC(=O)Cn1cc(COc2ccc3c(c2)CCC3)nn1,,inactive,inactive,inactive,> 25 µM,inactive,inactive,inactive,inactive,inactive,inactive,inactive,inactive
O=C(Cn1cc(COc2ccc3c(c2)CCC3)nn1)Nc1ccccc1Cl,,inactive,inactive,inactive,> 25 µM,inactive,inactive,inactive,inactive,inactive,inactive,inactive,inactive
O=C(Cn1cc(COc2ccc3c(c2)CCC3)nn1)Nc1ccc(Br)cc1,13 mm,inactive,5 mm,inactive,> 25 µM,inactive,inactive,12 mm,inactive,inactive,12 mm,inactive,inactive
CCc1ccc(NC(=O)Cn2cc(COc3ccc4c(c3)CCC4)nn2)cc1,11 mm,inactive,inactive,inactive,> 25 µM,inactive,inactive,inactive,inactive,inactive,inactive,inactive,inactive
O=C(O)c1cn(C2CC2)c2cc(N3CCNCC3)c(F)cc2c1=O,,,,,1.56 µM,,,,,,,,
CC[C@@H](CO)NCCN[C@@H](CC)CO,,,,,3.12 µM,,,,,,,,
CCc1ccc(-n2cc(COc3ccc4c(c3)CCC4)nn2)cc1,inactive,inactive,inactive,inactive,> 25 µM,inactive,13 mm,,7 mm,inactive,inactive,inactive,inactive
